Broadly, the IC50 is the concentration that inhibits the measured activity by half. Read a low IC50 as higher potency.

For one assay, the target named is Cyclin-dependent kinase/G2/mitotic-specific cyclin- 1 (Homo sapiens, UniProt P06493). The assay is described as follows: Kinase Inhibition Assay. Particulars: pH 8; 30 °C. The method, then: (§1) The enzyme was assayed with a biotinylated peptide substrate and test compounds in the presence of 5 uM ATP/[gamma-33P]ATP in a streptavidin coated FlashPlate (Perkin-Elmer, Boston, MA). Inhibition of the enzymatic activity due to the compound was measured by observing a reduced amount of 33P-gamma-ATP incorporated into the immobilized peptide relative to untreated controls. Linear regression analysis of the percent of inhibition by the test compound was used to calculate IC50 values.
Sequence of Cyclin-dependent kinase/G2/mitotic-specific cyclin- 1 (P06493 whole entry): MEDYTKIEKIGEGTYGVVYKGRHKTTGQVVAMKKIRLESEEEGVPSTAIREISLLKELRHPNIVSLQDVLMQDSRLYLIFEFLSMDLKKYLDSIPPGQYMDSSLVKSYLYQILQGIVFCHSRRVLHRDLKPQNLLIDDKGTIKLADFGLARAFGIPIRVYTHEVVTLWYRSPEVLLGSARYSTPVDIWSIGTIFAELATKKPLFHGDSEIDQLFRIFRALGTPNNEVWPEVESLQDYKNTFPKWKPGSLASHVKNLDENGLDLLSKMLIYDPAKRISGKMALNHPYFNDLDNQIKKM
Sequence of Cyclin-dependent kinase/G2/mitotic-specific cyclin- 1 (P14635 whole entry, further chain): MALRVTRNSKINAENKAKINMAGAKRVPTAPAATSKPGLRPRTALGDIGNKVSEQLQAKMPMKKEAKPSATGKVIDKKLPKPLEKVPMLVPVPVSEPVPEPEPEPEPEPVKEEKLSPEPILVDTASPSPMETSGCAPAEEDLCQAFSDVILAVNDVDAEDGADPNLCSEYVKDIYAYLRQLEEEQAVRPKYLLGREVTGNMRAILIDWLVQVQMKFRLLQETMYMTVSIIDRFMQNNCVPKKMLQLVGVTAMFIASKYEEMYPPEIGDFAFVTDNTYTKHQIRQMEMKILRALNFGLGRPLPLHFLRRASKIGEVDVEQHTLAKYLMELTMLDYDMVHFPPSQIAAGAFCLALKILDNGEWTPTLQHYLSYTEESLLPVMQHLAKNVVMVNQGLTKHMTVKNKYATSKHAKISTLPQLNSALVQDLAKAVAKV
For `OCCCNc1cncc(-c2ncncc2Nc2cccc(Cl)c2)c1` [3-[[5-[5-[(3-Chlorophenyl)amino]-4-pyrimidinyl]-3-pyridinyl]amino]-1-propanol], the IC50 was over 10 µM.

The next assay deals with Vascular endothelial growth factor receptor 2 (Rattus norvegicus, UniProt O08775). Nature of the assay: Kinase Inhibition Assay.
Sequence of Vascular endothelial growth factor receptor 2 (O08775 whole entry): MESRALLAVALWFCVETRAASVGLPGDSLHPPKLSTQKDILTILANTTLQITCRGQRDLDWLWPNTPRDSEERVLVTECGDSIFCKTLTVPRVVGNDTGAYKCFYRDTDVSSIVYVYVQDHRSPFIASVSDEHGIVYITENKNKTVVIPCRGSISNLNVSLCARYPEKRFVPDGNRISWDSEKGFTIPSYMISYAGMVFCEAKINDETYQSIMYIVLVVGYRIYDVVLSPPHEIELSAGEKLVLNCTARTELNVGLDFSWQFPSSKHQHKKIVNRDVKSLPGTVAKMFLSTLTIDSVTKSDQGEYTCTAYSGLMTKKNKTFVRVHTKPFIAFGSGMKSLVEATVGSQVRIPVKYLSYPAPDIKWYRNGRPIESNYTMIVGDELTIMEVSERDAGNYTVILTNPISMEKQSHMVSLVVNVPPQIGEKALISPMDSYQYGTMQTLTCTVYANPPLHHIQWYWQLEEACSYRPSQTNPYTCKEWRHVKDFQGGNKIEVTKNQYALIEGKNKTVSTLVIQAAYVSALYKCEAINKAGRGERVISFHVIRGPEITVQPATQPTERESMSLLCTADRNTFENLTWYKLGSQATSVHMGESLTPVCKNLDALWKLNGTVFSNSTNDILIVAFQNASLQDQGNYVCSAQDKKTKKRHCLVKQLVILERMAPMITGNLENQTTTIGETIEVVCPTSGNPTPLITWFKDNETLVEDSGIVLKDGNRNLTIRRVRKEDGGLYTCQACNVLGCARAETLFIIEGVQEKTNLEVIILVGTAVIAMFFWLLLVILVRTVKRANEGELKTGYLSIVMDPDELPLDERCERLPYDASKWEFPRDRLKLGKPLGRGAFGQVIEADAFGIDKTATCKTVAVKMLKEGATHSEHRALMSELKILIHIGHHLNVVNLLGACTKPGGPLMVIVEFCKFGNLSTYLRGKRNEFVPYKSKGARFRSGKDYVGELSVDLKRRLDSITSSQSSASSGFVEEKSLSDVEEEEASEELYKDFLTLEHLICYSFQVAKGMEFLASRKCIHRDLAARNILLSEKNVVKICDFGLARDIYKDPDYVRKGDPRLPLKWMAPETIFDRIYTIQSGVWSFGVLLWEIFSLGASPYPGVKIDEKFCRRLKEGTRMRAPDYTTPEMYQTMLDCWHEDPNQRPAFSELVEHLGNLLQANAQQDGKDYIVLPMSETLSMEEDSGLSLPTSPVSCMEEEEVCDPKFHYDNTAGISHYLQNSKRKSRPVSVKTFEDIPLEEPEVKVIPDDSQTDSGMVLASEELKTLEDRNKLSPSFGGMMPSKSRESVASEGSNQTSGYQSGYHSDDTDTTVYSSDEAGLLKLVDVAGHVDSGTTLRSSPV
Conditions: not given
The method, then: as §1
With `OCCCNc1cncc(-c2ncc(Nc3cccc(Cl)c3)cn2)c1` [3-[(5-{5-[(3-chlorophenyl)amino]pyrimidin-2-yl}pyridin-3-yl)amino]propan-1-ol], the IC50 is over 10 µM.
In turn, `OCCCNc1cncc(-c2cc(Nc3cccc(Cl)c3)ncn2)c1` [3-[(5-{6-[(3-chlorophenyl)amino]pyrimidin-4-yl}pyridin-3-yl)amino]propan-1-ol] came in with an IC50 of over 10 µM.
The same measure, in the same setting: under `OCCCNc1cccc(-c2cncc(Nc3cccc(Cl)c3)n2)n1` [3-[(6-{6-[(3-chlorophenyl)amino]pyrazin-2-yl}pyridin-2-yl)amino]propan-1-ol] stands over 10 µM; under `OCCCNc1cncc(-c2ncncc2Nc2cccc(Cl)c2)c1` [3-[[5-[5-[(3-Chlorophenyl)amino]-4-pyrimidinyl]-3-pyridinyl]amino]-1-propanol], over 10 µM.
On the same count and under the same terms, under `OCCCNc1cncc(-c2cnc(Nc3cccc(Cl)c3)cn2)c1` [3-[[5-[5-[(3-chlorophenyl)amino]pyrazinyl]-3-pyridinyl]amino]-1-propanol] stands over 10 µM.
The molecule `OCCCNc1ccc(-c2cncc(Nc3cccc(Cl)c3)n2)nc1` [3-{[6-[6-((3-Chlorophenyl)amino)pyrazin-2-yl]pyridin-3-yl]amino}propan-1-ol] displayed an IC50 of over 10 µM.

The record behind these values is BindingDB's records for doi:10.1021/jm040099a (Johnson & Johnson Pharmaceutical, 2005).
